9 compounds from ChEMBL document CHEMBL1201862, “PubChem BioAssay data set” (2004) can be followed below.

The structures appear in SMILES notation.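 48-hour exposure; five concentrations; linearly interpolated endpoints. GI50 is the concentration that inhibits growth by half.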 Active and inactive are the calls of the source. Rule as the data show it: active = GI50 up to about 1.1 µM and inactive = higher.

Some test systems named below: PC-3; HOP-92; IGROV-1; CAKI-1; SK-MEL-28; HCC 2998; HOP-62; RPMI-8226; EKVX; NCI-H522; OVCAR-8; A498; MDA-MB-435; HCT-15; U-251; SK-MEL-2; OVCAR-4; RXF 393; OVCAR-3.
What all share (assay): inhibition of tumour cell growth, NCI panel, 48 h

Turning to `Nc1ccc2nc(-c3cccc(C(F)(F)F)c3)cc(O)c2c1`, the GI50 in the test on PC-3 is 23.8 µM (inactive); in the test on HOP-92, > 100 µM (inactive); in the test on IGROV-1, 33.5 µM (inactive); in the test on CAKI-1, 29.6 µM (inactive); in the test with SK-MEL-28, 53.5 µM (inactive); in the test on HCC 2998 it was 60.1 µM (inactive). The GI50 with HOP-62 was 47.2 µM (inactive); in the test with RPMI-8226, 38.5 µM (inactive); in the test on EKVX, 44.7 µM (inactive); in the test with NCI-H522 it was 61.8 µM (inactive); in the test with OVCAR-8, 47 µM (inactive); with A498, 29.1 µM (inactive). Moreover, the values for the GI50 in the test on MDA-MB-435, with HCT-15 and with U-251 were 20.3 µM (inactive), 34.8 µM and 49.3 µM (inactive), respectively.
Turning to `CC1(O)CC23CC1CCC2(C)C12CCCC(C)(C(=O)O1)C2CC3O` (configuration not stated), the GI50 in the test with PC-3, in the test with HOP-92, with IGROV-1, in the test on SK-MEL-2, in the test on CAKI-1 and in the test with SK-MEL-28 was > 100 µM (inactive) in each case. Further, the GI50 in the test on HCC 2998, in the test with OVCAR-4, in the test on EKVX, with NCI-H522, in the test on OVCAR-8 and in the test with A498 was > 100 µM (inactive) in each case. Also, the GI50 is > 100 µM (inactive) in the test on MDA-MB-435, more than 100 µM in the test on HCT-15 and > 100 µM (inactive) with U-251.
Consider `CCN1C(Cl)=NS(=O)(=O)c2ccccc21`, for which the GI50 in the test with PC-3 was 50 µM (inactive); in the test on HOP-92 it was 18.8 µM (inactive); with IGROV-1, 23.1 µM (inactive); in the test on SK-MEL-2, 39.7 µM (inactive); in the test on RXF 393, 17.3 µM (inactive); with CAKI-1 it was 1.93 µM (inactive). Besides, the GI50 is 74.8 µM (inactive) in the test on SK-MEL-28; 19.3 µM (inactive) in the test with OVCAR-3; 20.3 µM (inactive) in the test with HCC 2998; 25.2 µM (inactive) in the test with HOP-62; 19.4 µM (inactive) in the test with OVCAR-4; 23.8 µM (inactive) in the test with EKVX. The GI50 is 4.66 µM (inactive) in the test with NCI-H522; 28.3 µM (inactive) with OVCAR-8; 22.4 µM (inactive) with A498; 49.7 µM (inactive) in the test with MDA-MB-435; 9.86 µM in the test on HCT-15; 62.1 µM (inactive) in the test on U-251.
Turning to `COc1cccc2c1CCc1sc(CN3CCN(C)CC3)nc1-2`, the GI50 in the test on PC-3 is 44.8 µM (inactive); in the test on IGROV-1, > 100 µM (inactive); in the test with SK-MEL-2, > 100 µM (inactive); with RXF 393 it was 6.84 µM (inactive); with CAKI-1, > 100 µM (inactive); in the test with SK-MEL-28 it was 49.7 µM (inactive). Besides, the GI50 in the test with OVCAR-3 was > 100 µM (inactive); in the test with HCC 2998, 49.4 µM (inactive); in the test on HOP-62 it was > 100 µM (inactive); with RPMI-8226, 30.1 µM (inactive); in the test with OVCAR-4, > 100 µM (inactive); in the test on EKVX, > 100 µM (inactive). Besides, the GI50 with NCI-H522 is 52.2 µM (inactive); with OVCAR-8, > 100 µM (inactive); with A498 it was 26.7 µM (inactive); with MDA-MB-435, 63.5 µM (inactive); with HCT-15, 83.6 µM; in the test on U-251 it was > 100 µM (inactive).
In the case of `CSCCCNC(=O)c1csc(-c2csc(CCNC(=O)CNC(=O)OC(C)(C)C)n2)n1`, the GI50 in the test with PC-3, in the test on HOP-92, with IGROV-1, in the test with SK-MEL-2, in the test with RXF 393 and in the test on CAKI-1 was > 100 µM (inactive) in each case. Besides, the GI50 in the test with SK-MEL-28, in the test with OVCAR-3, in the test with HCC 2998, in the test with HOP-62, with OVCAR-4 and with EKVX was > 100 µM (inactive) each time. Besides, the GI50 in the test with NCI-H522 was > 100 µM (inactive); with OVCAR-8 it was > 100 µM (inactive); in the test on A498 it was > 100 µM (inactive); in the test with MDA-MB-435, > 100 µM (inactive); in the test on HCT-15 it was more than 100 µM; in the test on U-251, > 100 µM (inactive).
Regarding `Cn1c2ccccc2c(=O)c2cccc(C(=O)NC(CCC(N)=O)C(=O)O)c21` (configuration not stated), the GI50 with PC-3, in the test on IGROV-1, in the test on SK-MEL-2, with CAKI-1, in the test on SK-MEL-28 and in the test on OVCAR-3 was > 100 µM (inactive) throughout. In addition, the GI50 in the test on HCC 2998, in the test on HOP-62, in the test on RPMI-8226, in the test with OVCAR-4, in the test with EKVX and with OVCAR-8 was > 100 µM (inactive) throughout. In addition, the GI50 with A498 was > 100 µM (inactive); in the test with MDA-MB-435, > 100 µM (inactive); with HCT-15, more than 100 µM; with U-251, > 100 µM (inactive).
`CC1=NN2C=Nc3c(c(-c4ccc(Cl)cc4)cn3-c3ccc(C)cc3)C2N1` (configuration not stated): the GI50 in the test with PC-3 is 32.9 µM (inactive); in the test on HOP-92 it was 17.1 µM (inactive); in the test on IGROV-1 it was 76.6 µM (inactive); in the test with SK-MEL-2 it was > 100 µM (inactive); in the test with RXF 393, 42.5 µM (inactive); in the test with CAKI-1, 97.3 µM (inactive). Also, the GI50 was > 100 µM (inactive) with SK-MEL-28; > 100 µM (inactive) in the test on OVCAR-3; > 100 µM (inactive) with HCC 2998; 36.5 µM (inactive) with HOP-62; 6.24 µM (inactive) in the test on OVCAR-4; > 100 µM (inactive) in the test with EKVX. In addition, the GI50 with NCI-H522 is > 100 µM (inactive); in the test on OVCAR-8, 29.9 µM (inactive); with A498, > 100 µM (inactive); in the test with MDA-MB-435, > 100 µM (inactive); in the test on HCT-15, more than 100 µM; in the test on U-251 it was 76.2 µM (inactive).
Turning to `Cc1cc(C)n2c(nc3ccccc32)c1C#N`, the GI50 with PC-3 is > 100 µM (inactive); in the test with HOP-92 it was 22.4 µM (inactive); with IGROV-1, > 100 µM (inactive); with SK-MEL-2 it was > 100 µM (inactive); in the test with RXF 393 it was > 100 µM (inactive); with CAKI-1 it was > 100 µM (inactive). Besides, the GI50 is > 100 µM (inactive) with SK-MEL-28; > 100 µM (inactive) with OVCAR-3; > 100 µM (inactive) in the test with HCC 2998; 10.8 µM (inactive) in the test on OVCAR-4; > 100 µM (inactive) in the test on EKVX; > 100 µM (inactive) in the test on OVCAR-8. In addition, the GI50 with A498 is > 100 µM (inactive); with MDA-MB-435 it was > 100 µM (inactive); in the test with HCT-15, more than 100 µM; in the test on U-251, > 100 µM (inactive).
On to `C=C1C2CCC3C4(C)CCCC(C)(C(=O)O)C4CCC3(C2)C1OC(=O)/C(C)=C/C` (configuration not stated), for which the GI50 is 31.3 µM (inactive) in the test on PC-3; 25.6 µM (inactive) with HOP-92; 27.1 µM (inactive) in the test with IGROV-1; 36.1 µM (inactive) with SK-MEL-2; 15.9 µM (inactive) in the test on RXF 393; 26.2 µM (inactive) in the test on CAKI-1. Also, the GI50 in the test on SK-MEL-28 was 51.6 µM (inactive); in the test on OVCAR-3, 19.8 µM (inactive); in the test on HCC 2998, 26.7 µM (inactive); in the test on HOP-62, 45.6 µM (inactive); in the test on OVCAR-4, 41.6 µM (inactive); in the test with EKVX, 35.1 µM (inactive). In addition, the GI50 in the test on NCI-H522 was 31.8 µM (inactive); in the test on OVCAR-8 it was 32.7 µM (inactive); with A498 it was 25.3 µM (inactive); in the test with MDA-MB-435 it was 34 µM (inactive); in the test with HCT-15 it was 22.9 µM; in the test with U-251, 30.7 µM (inactive).
